Experimental data taken from US6544995B1, “Use of cysteine derivatives for preparing a medicine for treating pathologies resulting from the formation of heterotrimeric G protein” (Societe de Conseils de Recherches et d'Applications …, priority 1998, dated 2003).
Like-named read-outs stand apart in the source and are kept apart here. Where no end group is shown, it is not given here.

Tests used:
MAP kinase = MAP kinase activity in MCF7 cells; format: cell-based, human; settings: for activity of the MAP kinase after EGF stimulation: pretreatment 1 hour, then EGF for 5 minutes
Protocol: After 24 hours of culture, the cells are incubated for 48 hours in medium containing no serum in order to return the cells to a state of rest. The cells are then treated for 1 hour either with compound I or with PD98059 (Calbiochem, France Biochem, Meudon, France), a specific inhibitor of MAP kinase activation. The cells are then stimulated (or not) for 5 minutes with 12.5 ng/ml of epidermal growth factor (EGF). The reaction is stopped by two washes with PBS (Gibco-Brl, Cergy-Pontoise, France), at 4° C. containing neither calcium nor magnesium and by adding 150 μl of lysis buffer at 4° C. the composition of which is the following: 10 mM of tris, 150 mM of NaCl, 2 mM of EGTA, 2 mM of dithiothreitol, 1 mM of PMSF, 2 mM of orthovanadate, 10 μg/ml of leupeptin and 10 μg/ml of aprotinin. Measurement of the proteins contained in the extracts is carried out by Bradford's method (Biorad reagents, Ivry-Sur-Seine, France). […] The radioactivity is determined using a Packard scintillation counter (Tricarb 5000CA).

[1] = test system: production of cyclic AMP stimulated by VIP in MCF7 cells; experiment: Cyclic AMP production stimulated by VIP in MCF-7 cells; format: cell-based, human; settings: for inhibition at 30 µM: Homo sapiens, 0.5 h; for inhibition at 30 µM / Inhibition at 30 μM of production of cyclic AMP stimulated by VIP: MCF7 cells, compound 30 μM for 30 minutes, then 10^-8 M VIP, n=1
Protocol: The cells are incubated for 30 minutes in the presence or not of compounds I, II, III and IV (30 μM) which are then stimulated by 10^−8 M of VIP. The quantification of cyclic AMP is determined by radioimmunoassay. The data represents the average±MSD (n=5 for the control and n=1 for the different compounds).

MCF7 human tumour cells = experiment: In vitro cell proliferation of MCF-7 cells (WST1); format: cell-based; settings: 96 hours treatment, WST1 test, average of 2 experiments, read-out: IC50, inhibition of in vitro growth of MCF7 cells
Protocol: The cells were treated on day 1 for 96 hours with increasing concentrations of up to 50 μM of each of the compounds to be tested. After this period, quantification of cell proliferation is determined by a colorimetric test, based on the cleavage of the WST1 tetrazolum salt by the mitochondrial dehydrogenases in the viable cells, leading to the formation of formazan (Boehringer Mannheim, Meylan, France). These tests are carried out in duplicate with 8 determinations per concentration tested. For each compound to be tested, the values included in the linear part of the sigmoid were retained for linear regression analysis and used to estimate the inhibitory concentration (IC50).

adenylate cyclase [2] = test system: adenylate cyclase
Protocol: (§1) MCF-7 cells (2.10^4 cells/well) seeded in 24-well plates are cultured for 5 days in Dulbecco's modified Eagle medium (Gibco-Brl, Cergy-Pontoise, France) completed with 10% of foetal calf serum inactivated by heating (Gibco-Brl, Cergy-Pontoise, France ), 50000 units/l of penicillin and 50 mg/l streptomycin (Gibco-Brl, Cergy-Pontoise, France), and 2 mM of glutamin (Gibco-Brl, Cergy-Pontoise, France). The culture medium is replaced after two washes with a medium without a serum completed or uncompleted with the specified agents for a time indicated in the different figures. Agents activating the production of cyclic AMP are then added at 37° C. The reaction is stopped after 30 minutes by suppressing the medium and rapidly adding 100 μl of a 0.1N solution of HCl. These extracts are frozen at −80° C. until they are used. The concentration of cAMP is measured using a commercial measurement kit (reference NEK033 from NEN, Les Ulis, France), following the manufacturer's instructions. The radioactivity is determined by a Gamma counter (Gamma Master-1277, LKB, Turku, Finland).

heterotrimeric G protein = format: cell-based, human
adenylate cyclase [3] = settings: pretreatment 30 minutes with 30 μM; forskolin 10 μM
Protocol: as §1

[4] = test system: production of cyclic AMP stimulated by VIP in MCF7 cells; experiment: Cyclic AMP production stimulated by VIP in MCF-7 cells; format: cell-based, human

## COc1cccc(-c2cc(=O)c3ccccc3o2)c1N [PD98059, reference compound]
MAP kinase
  activity of the MAP kinase after EGF stimulation: halves

## EGF: epidermal growth factor used to stimulate MAP kinase [reference compound]
MAP kinase; stimulation by EGF for 5 minutes
  increase of MAP kinase activity: approximately 7 times

## COC(=O)[C@@H](CC(C)C)NC(=O)c1ccc(NC[C@@H](N)CS)cc1-c1ccccc1 [compound (IV)]
[1]
  inhibition at 30 µM: 52%
MCF7 human tumour cells; Homo sapiens, MCF7
  IC50: 34.6 µM

## CCCC[C@H]1CN(C(=O)c2cccc3ccccc23)CCN1C[C@@H]1CSSC[C@H](N)C(=O)N1 [compound (VII)]
[1]
  inhibition at 30 µM: 65%

## CCC(C)C1c2nc(-c3ccccc3OC)cn2CCN1C(=O)C(N)CSSCC(N)C(=O)N1CCn2cc(-c3ccccc3OC)nc2C1C(C)CC (stereo not drawn) [compound (VI), bis-1,1′-[7-(2-amino-1-oxo-3-thiopropyl)-2-(methoxyphenyl)-8-(1-methylpropyl)-5,6,7,8-tetrahydroimidazo[1.2a]pyrazine]]
[1]
  Inhibition at 30 μM of production of cyclic AMP stimulated by VIP: 52%

## Cc1ccccc1-c1cn2c(n1)C(CC1CCCCC1)N(C(=O)C(N)CS)CC2 (stereo not drawn) [compound (III), 7-(2-amino-1-oxo-3-thiopropyl)-8-(cyclohexylmethyl)-2-(2-methylphenyl)-5,6,7,8-tetrahydroimidazo[1.2a]pyrazine]
[1]
  Inhibition at 30 μM of production of cyclic AMP stimulated by VIP: 59%
MCF7 human tumour cells
  IC50: 16.1 µM

## VIP: vasoactive intestinal peptide, ligand of a G protein-coupled receptor stimulating cyclic AMP synthesis (HSDAVFTDNYTRLRKQMAVKKYLNSILN; ends and bridges not checked; UniProt P01282 125-152, looked up) [reference compound]
[1]; treatment of MCF-7 cells with VIP alone
  intracellular quantity of cyclic AMP: increases the intracellular quantity of cyclic AMP in a concentration-dependent manner

## CCCCC[C@H](O)/C=C/[C@H]1[C@H](O)CC(=O)[C@@H]1C/C=C\CCCC(=O)O [prostaglandin E2, reference compound]
Adenylate cyclase [2]; prostaglandin E2 alone, MCF7 cells
  activity of adenylate cyclase: greatly increased

## CC(C)CC1c2nc(-c3cccc4ccccc34)cn2CCN1C(=O)C(N)CSSCC(N)C(=O)N1CCn2cc(-c3cccc4ccccc34)nc2C1CC(C)C (stereo not drawn) [compound (II)]
[1]
  Inhibition at 30 μM of production of cyclic AMP stimulated by VIP: 71%
MCF7 human tumour cells
  IC50: 15 µM

## COc1ccccc1-c1cn2c(n1)C(CC1CCCCC1)N(C(=O)C(N)CSSCC(N)C(=O)N1CCn3cc(-c4ccccc4OC)nc3C1CC1CCCCC1)CC2 (stereo not drawn) [compound (I)]
Adenylate cyclase [2]; treatment for 30 minutes
  effect on adenylate cyclase activity increased by prostaglandin E2: inhibited
Heterotrimeric G protein
  effect on production of cyclic AMP stimulated by choleric toxin: greatly inhibited
MAP kinase
  activity of the MAP kinase after EGF stimulation: halves
MAP kinase; treatment for 1 hour, no EGF
  basal activity of the MAP kinase: doubles
[1]
  Inhibition at 30 μM of production of cyclic AMP stimulated by VIP: 86%
Adenylate cyclase [3]
  effect on production of cyclic AMP induced by forskolin: does not modify
[4]; 100 μM, 30-minute pretreatment, VIP 10 nM
  inhibition of accumulation of cyclic AMP stimulated by VIP at 100 μM: almost complete inhibition
[4]; 30-minute pretreatment, VIP 10 nM
  inhibition of accumulation of cyclic AMP stimulated by VIP, concentration dependence: in a concentration-dependent manner
[4]; 1 hour treatment
  effect on response to VIP, treatment for an hour: sufficient to modify the response to VIP
[4]; 8 hours and 24 hours treatment, VIP
  effect on production of cyclic AMP, longer treatments: continue to inhibit
MCF7 human tumour cells
  IC50: 9.4 µM

## CCCCC1c2nc(-c3ccccc3OC)cn2CCN1C(=O)C(N)CS (stereo not drawn) [compound (V), 7-(2-amino-1-oxo-3-thiopropyl)-8-butyl-2-(2-methoxyphenyl)-5,6,7,8-tetrahydroimidazo[1.2a]pyrazine]
[1]
  Inhibition at 30 μM of production of cyclic AMP stimulated by VIP: 68%
